The results in this text go back to publication PMC9024521, “4-Heteroaryl Substituted Amino-3,5-Dicyanopyridines as New Adenosine Receptor Ligands: Novel Insights on Structure-Activity Relationships and Perspectives” (Pharmaceuticals, 2022).

One data set concerns the target T1, hA2B AR (Homo sapiens, UniProt P29275).
T1 construct: host or cells: CHO cells
T1 sequence (P29275 1-332): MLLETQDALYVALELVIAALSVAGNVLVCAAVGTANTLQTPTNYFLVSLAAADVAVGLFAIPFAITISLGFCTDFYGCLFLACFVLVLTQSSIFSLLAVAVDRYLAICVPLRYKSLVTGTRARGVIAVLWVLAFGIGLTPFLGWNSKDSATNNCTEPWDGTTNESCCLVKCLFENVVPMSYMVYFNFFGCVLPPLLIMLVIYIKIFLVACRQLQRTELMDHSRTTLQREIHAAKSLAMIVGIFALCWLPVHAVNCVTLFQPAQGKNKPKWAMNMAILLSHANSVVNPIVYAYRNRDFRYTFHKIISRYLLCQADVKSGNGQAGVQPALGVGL
In words: cAMP assay in CHO cells expressing hA2B AR (stimulation of cAMP production). The conditions noted are these: for Emax at 1 µM: CHO, 1 µM compound, in comparison with NECA (1 µM = 100%), read-out: Efficacy hA2B (cAMP assay) (converted); for EC50: hA2B CHO cells, mean ± SEM of four assays. In kind it is cell-based. As for the experimental part:
(§1) The amino-3,5-dicyanopyridines 1–21 were tested for their affinity at hA1, hA2A and hA3 ARs, stably transfected in Chinese Hamster Ovary (CHO) cells. Moreover, they were also studied as hA2B agonists by evaluating their stimulatory effect on cAMP production in CHO cells, stably expressing the hA2B AR. […] Due to their interesting pan profile, both compounds 1 and 5 were evaluated as AR agonists also at the hA2A and hA3 subtypes.
(§2) CHO cells transfected with hA1, hA2A, hA2B and hA3 ARs (Perkin Elmer, Boston, MA, USA) were grown adherently and maintained in Dulbecco’s modified Eagle’s medium with nutrient mixture F12, containing 10% fetal calf serum, penicillin (100 U/mL), streptomycin (100 μg/mL), L-glutamine (2 mM) and geneticine (G418; 0.2 mg/mL), at 37 °C, in 5% CO2/95% air, until their use in cAMP assays. For membrane preparation, the culture medium was removed, and the cells were washed with phosphate-buffered saline and scraped off T75 flasks in ice-cold hypotonic buffer (5 mM Tris HCl, 1 mM EDTA, pH 7.4). The cell suspension was homogenized with a Polytron, centrifuged for 30 min at 40,000× g, at 4 °C, and the resulting membrane pellet was used for competition binding experiments.
(§3) CHO cells transfected with hAR subtypes were washed with phosphate-buffered saline, detached with tripsine and centrifuged for 10 min at 200× g. Cells were seeded in a 96-well white half-area microplate (Perkin Elmer, Boston, USA) in a stimulation buffer composed of Hank Balanced Salt Solution, 5 mM HEPES, 0.5 mM Ro 20–1724, 0.1% BSA. The cAMP levels were then quantified by using the AlphaScreen cAMP Detection Kit (Perkin Elmer, Boston, MA, USA), following the manufacturer’s instructions. At the end of the experiments, the plates were read with a Perkin Elmer EnSight Multimode Plate Reader.

A further data set addresses T2, hA2AAR (Homo sapiens, UniProt P29274).
T2 construct: host or cells: CHO cells
Description: cAMP assay in hA2A CHO cells. It counts as cell-based. The conditions noted are these: for EC50: cAMP assay, hA2A CHO cells; for hA2AAR Efficacy: normalized: CGS21680 full agonist = 100%. On the procedure:
as §1, §2, §3

The target in the next data set is T3, hA3AR (Homo sapiens, UniProt P0DMS8).
T3 construct: host or cells: CHO cells
T3 sequence (P0DMS8 1-318): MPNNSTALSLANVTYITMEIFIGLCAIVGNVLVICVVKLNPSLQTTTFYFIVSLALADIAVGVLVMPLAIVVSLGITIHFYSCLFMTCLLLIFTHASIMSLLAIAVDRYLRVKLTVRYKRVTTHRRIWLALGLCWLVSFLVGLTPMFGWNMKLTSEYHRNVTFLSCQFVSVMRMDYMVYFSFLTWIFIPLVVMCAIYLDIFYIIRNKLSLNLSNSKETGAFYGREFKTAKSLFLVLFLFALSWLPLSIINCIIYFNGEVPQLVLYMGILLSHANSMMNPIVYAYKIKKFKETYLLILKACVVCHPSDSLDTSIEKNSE
Description: Modulation of Forskolin-stimulated cAMP levels in hA3 CHO cells. In kind it is cell-based. The conditions noted are these: for IC50: cAMP assay, hA3 CHO cells, read-out: hA3AR IC50, potency to modulate Forskolin-stimulated cAMP levels; for hA3AR Efficacy: normalized: 2-Cl-IB-MECA full agonist = 100%. As for the experimental part:
as §1, §2, §3

The nature of data set [1]: In vitro permeation, vertical Franz diffusion cell. It counts as in vitro ADME. The conditions noted are these: cellulose nitrate membrane impregnated with lauryl alcohol, PBS pH 7.4 + Tween 80 2% w/w, 37 °C. On the procedure: Compounds 1 and 5 were evaluated for their capability to penetrate the artificial membrane simulating the epidermal barrier. Permeation flux was assessed by using vertical Franz diffusion cells.
Compound assay was performed by HPLC (Merck Hitachi Elite LaChrom apparatus, Darmstadt, Germany), equipped with a L-2400 UV–Vis detector and an L-2130 isocratic pump. The mobile phase A was water, and the mobile phase B was methanol. Gradient steps were programmed as follows: A–B 60%–40% at time 0, ramped to 70% B in 3 min, held at 70% for 2 min and returned to initial conditions during 3 min. A Hibar Purospher® RP-8e (150 × 4.6 mm, 5 µm pore size) was the stationary phase. UV detection was performed at 292 nm. The injection volume was 20 µL, the flow rate was 1.2 mL/min and the column temperature was 40 ± 1 °C. Under these conditions, the compounds retention time was 5.30 ± 0.01 min. The method was validated for linearity (r^2 = 0.998; r^2 = 0.997), limit of quantification (3.03 µg/mL; 4.50 µg/mL) and limit of detection (0.91 µg/mL; 1.35 µg/mL) for P293BL and P297, respectively.
In vitro permeation studies were carried out by using vertical Franz diffusion cell (Rofarma, Gaggiano, Italy). […] A correction for the cumulative dilution, due to the sample replacement with an equal volume of fresh medium, was calculated. […]

A short description of data set [2]: Solubility in testing medium. The conditions noted are these: PBS + Tween 80 (2% w/w), pH 7.4, aqueous with cosolvent or surfactant or cyclodextrin. It counts as physicochemical.

T2 sequence (P29274 whole entry): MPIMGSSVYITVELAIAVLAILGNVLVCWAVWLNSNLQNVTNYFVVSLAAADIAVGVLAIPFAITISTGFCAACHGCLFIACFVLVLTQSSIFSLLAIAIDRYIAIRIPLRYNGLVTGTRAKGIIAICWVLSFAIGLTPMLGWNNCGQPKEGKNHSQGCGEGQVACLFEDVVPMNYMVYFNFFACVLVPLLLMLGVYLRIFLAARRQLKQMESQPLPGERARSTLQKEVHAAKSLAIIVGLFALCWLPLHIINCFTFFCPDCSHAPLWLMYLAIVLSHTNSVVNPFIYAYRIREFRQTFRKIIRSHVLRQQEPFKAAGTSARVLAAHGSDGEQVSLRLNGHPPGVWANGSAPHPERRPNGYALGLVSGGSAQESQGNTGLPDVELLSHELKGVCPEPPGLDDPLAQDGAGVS

With `N#Cc1c(N)nc(SCc2ncc[nH]2)c(C#N)c1-c1cccs1` [Compound 5, 2-Amino-6-[(1H-imidazol-2-ylmethyl)sulfanyl]-4-(thiophen-2-yl)pyridine-3,5-dicarbonitrile], at hA2B AR, the Emax at 1 µM is 73% and the EC50 was determined as 1.12 ± 0.11 nM. Further, at hA2AAR, a half-maximal response (EC50) required 11.3 ± 1 nM and the “hA2AAR Efficacy” value was 40 ± 3%. On hA3AR, the IC50 came out at 33 ± 2 nM and the “hA3AR Efficacy” value was 34 ± 3%. Also, the “amount of permeated drug after 24 h” value in data set [1] amounted to 22.7 ± 1.0 µg/mL. Besides, the solubility in data set [2] was 27.3 ± 2.52 µg/mL.

Regarding `N#Cc1c(N)nc(SCc2ncc[nH]2)c(C#N)c1-c1ccco1` [Compound 1, 2-Amino-4-(furan-2-yl)-6-[(1H-imidazol-2-ylmethyl)sulfanyl]pyridine-3,5-dicarbonitrile], on hA2B AR, the Emax at 1 µM is 52% and the EC50 amounted to 1.4 ± 0.2 nM. In addition, on hA2AAR, the EC50 came to 15.1 ± 1.3 nM and the “hA2AAR Efficacy” value was 39 ± 3%. Further, on hA3AR, the IC50 came out at 68 ± 6 nM and the “hA3AR Efficacy” value worked out at 45 ± 4%. Besides, the “amount of permeated drug after 24 h” value in data set [1] stood at 15.0 ± 1.4 µg/mL. Also, the solubility in data set [2] came to 40.6 ± 0.16 µg/mL.

For orientation: EC50 means the concentration that produces a half-maximal response. As a reminder, the IC50 is the concentration at which inhibition is half-maximal. The term solubility denotes the dissolved amount per volume that the medium holds.
